PMC6661809, “Lead optimization for promising monoamine oxidase inhibitor from eugenol for the treatment of neurological disorder: synthesis and in silico based study” (BMC Chemistry, 2019)

Columns and labels:
hMAO-B = biological target: T1, hMAO-B (Homo sapiens, UniProt P27338); test: Recombinant human MAO-B inhibition screening (Amplex Red, p-tyramine); type: biochemical; conditions: p-tyramine substrate, mean SEM
T1 construct: purchased Sigma-Aldrich; host or cells: insect cells (BTI-TN-5B14) infected with recombinant baculovirus
T1 sequence (P27338 1-520): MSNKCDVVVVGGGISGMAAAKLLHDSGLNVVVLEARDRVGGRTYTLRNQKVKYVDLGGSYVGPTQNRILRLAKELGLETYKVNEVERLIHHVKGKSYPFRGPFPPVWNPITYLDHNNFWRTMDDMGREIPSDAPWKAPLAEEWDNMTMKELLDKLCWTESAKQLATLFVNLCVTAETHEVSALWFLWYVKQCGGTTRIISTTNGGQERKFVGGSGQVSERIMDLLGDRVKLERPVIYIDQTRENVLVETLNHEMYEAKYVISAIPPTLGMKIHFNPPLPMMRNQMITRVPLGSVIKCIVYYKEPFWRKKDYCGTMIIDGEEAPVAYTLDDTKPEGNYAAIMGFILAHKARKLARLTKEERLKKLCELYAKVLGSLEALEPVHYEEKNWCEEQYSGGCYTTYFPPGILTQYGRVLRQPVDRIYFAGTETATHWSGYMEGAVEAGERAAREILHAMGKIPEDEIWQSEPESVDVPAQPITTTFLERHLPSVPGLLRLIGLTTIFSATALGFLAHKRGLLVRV
Excerpt: (§1) To evaluate IC50 values for the inhibition of human MAO-A and MAO-B by newly synthesized compounds the commercially available recombinant human enzymes expressed in insect cells were used (Sigma-Aldrich). The MAO inhibition assay was based on the method described by Anderson et al., 1993 and Chimenti et al. with some modifications. The Amplex Red MAO Kit tyramine (Sigma-Aldrich) affords a suitable fluorimetric method to evaluate MAO enzyme action of synthetic and natural compounds. In the assay, MAO reacts with p-tyramine, a common substrate for both MAO isoforms, ensuing in the production of H2O2, which is identified by a fluorimetric method (λex = 530/λem = 585 nm). Each test well contained 0.1 mL of sodium phosphate buffer (0.05 M, pH 7.4), a range of concentrations of the eugenol based derivatives or reference compounds along with recombinant hMAO-A or hMAO-B in appropriate quantity. After the preparation of this mixture the wells were subjected to incubation for 15 min at 37 °C, placed in the dark fluorimeter chamber. Once this incubation period over, the process was rendered by mixing 200 µM Amplex Red reagent (Sigma-Aldrich), 1 U/mL horseradish peroxidase (Sigma-Aldrich) and p-tyramine (Sigma-Aldrich). Subsequently, the formation of hydrogen peroxide exerted by MAO isoforms was quantified by using Amplex-Red reagent, a non-fluorescent probe that reacts with H2O2 in the existence of horse radish peroxidase to generate the fluorescent component resorufin. Moreover, the control analysis was calculated in the absence of compound and reference inhibitors. The probability of compounds to change the fluorescence produced in the reaction mix due to non-enzymatic inhibition was assessed by mixing titled compounds to solutions of single Amplex Red reagent in a sodium phosphate buffer. Data were processed in Microsoft Excel, to calculate IC50 values.

[1] = Ferric reducing antioxidant power (FRAP) assay; conditions: Table 9, mean ± SEM, n = 3;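 also: Ferrous-TPTZ reduction read as absorbance at 593 nm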
Method: The capacity of antioxidants to decrease ferric iron is measured by this method. The reaction of […] (TPTZ) and complex ferric iron yields ferrous form at low pH. […] This method was adopted from the reports of Benzie et al..

[2] = Hydrogen peroxide scavenging (H2O2) assay; conditions: Table 7, mean ± SEM, n = 3
Method: Hydrogen peroxide generally turns into water and oxygen and produces highly toxic hydroxyl radical that renders the damage to DNA and peroxidation of lipid. H2O2 scavenging ability of eugenol based derivatives was evaluated by method described by Nakano and colleagues with some alteration. The hydrogen peroxide solution (40 mM) was prepared in phosphate buffer (40 mM pH 7.4) and addition of several ranges of synthesized derivatives (05–80 μg/mL) was done into H2O2 solution (2 mL). The determination of H2O2 concentration was done by UV/Vis Epoch ELISA reader at 230 nm upon incubation of 10 min. Solution of phosphate buffer without H2O2 was noted as blank reading. The hydrogen peroxide percentage inhibition was estimated through the formula [(AH − AD)/AO] × 100, where AH is the absorbance of the control and AD is the absorbance of compounds/reference taken as 05–80 μg/mL L-ascorbic acid.

DPPH scavenging activity = conditions: Table 6, mean ± SEM, n = 3
Method: Solutions of synthesized compounds were set in ethanol/water (1:1) having 10 mM to 100 mM at a period of 10 mM. The 0.01% DPPH· stock solution was prepared in ethanol/water (1:1). Samples were prepared as 5 mL DPPH· solution was mixed with 5 mL L-ascorbic acid solution then shaken vigorously and kept in the dark. Corresponding blank sample were prepared and L-ascorbic acid was used as reference standard. […] The actual decrease in absorption induced by the test was compared with the positive controls. The IC50 values were calculated use the dose inhibition curve in linear range by plotting the extract concentration versus the corresponding scavenging effect through following equation [(ADR − APR)/AO] × 100. Where ADR is the absorbance prior to reaction and APR is the absorbance after reaction with DPPH·.

[3] = Nitric oxide scavenging activity; conditions: Table 8, mean ± SEM, n = 3
Excerpt: The generation of nitric oxide (NO·) on biological tissues is mediated by particular nitric oxide synthases enzyme that control the catabolism of the arginine to citrulline via creation of NO through a five electron oxidative reaction. At the physiological pH (7.2) in aqueous solution sodium nitroprusside decompose to produce NO·. Finally, NO· reacts with oxygen at underaerobic conditions and produces stable products (nitrate and nitrite), this amount can be determined by means of Griess reagent. The procedure for the nitric oxide scavenging activity was adopted from reports of Alam et al..

hMAO-A = biological target: T2, hMAO-A (Homo sapiens, UniProt P21397); test: Recombinant human MAO-A inhibition screening (Amplex Red, p-tyramine); type: biochemical; conditions: for Selectivity index: IC50 (MAO-A)/IC50 (MAO-B); for IC50: recombinant hMAO-A, p-tyramine substrate, mean SEM
T2 construct: purchased Sigma-Aldrich; host or cells: insect cells (BTI-TN-5B14) infected with recombinant baculovirus
T2 sequence (P21397 1-527): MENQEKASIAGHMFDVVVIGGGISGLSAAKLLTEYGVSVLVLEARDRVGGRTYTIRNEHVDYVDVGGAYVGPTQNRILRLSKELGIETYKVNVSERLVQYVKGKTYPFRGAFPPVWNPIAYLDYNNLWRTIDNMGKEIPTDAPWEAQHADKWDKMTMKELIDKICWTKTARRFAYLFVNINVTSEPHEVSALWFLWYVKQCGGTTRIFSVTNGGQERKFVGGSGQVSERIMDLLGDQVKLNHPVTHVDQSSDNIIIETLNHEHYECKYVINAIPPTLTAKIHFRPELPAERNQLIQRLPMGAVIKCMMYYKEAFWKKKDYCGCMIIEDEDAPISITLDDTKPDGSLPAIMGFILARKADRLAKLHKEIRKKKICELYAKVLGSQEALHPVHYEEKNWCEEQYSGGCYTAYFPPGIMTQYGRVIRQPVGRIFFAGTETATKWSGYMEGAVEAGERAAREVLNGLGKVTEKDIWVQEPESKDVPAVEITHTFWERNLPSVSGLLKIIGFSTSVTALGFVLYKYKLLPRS
Excerpt: as §1

Row | Molecule | IC50 (hMAO-B) | FRAP IC50 [1] | H2O2 scavenging IC50 [2] | DPPH scavenging IC50 (DPPH scavenging activity) | Nitric oxide scavenging IC50 [3] | Selectivity index (hMAO-A) | IC50 (hMAO-A) | melting point
1 | C=CCc1ccc(OC(=O)/C=C\c2ccccc2)c(OC)c1 [Compound 17, (Z)-4-allyl-2-methoxyphenyl 3-phenylacrylate] | 34.2 ± 0.037 µM | 15.91 ± 0.003 µg/mL | 30.4 ± 0.064 µg/mL | 31.30 ± 0.014 µg/mL | 25.61 ± 0.076 µg/mL | 0.40 | 13.92 ± 0.051 µM | 
2 | C=CCc1ccc(OCC(=O)NNC(=O)c2ccccc2S)c(OC)c1 [Compound 9b, N′-(2-(4-allyl-2-methoxyphenoxy)acetyl)-2-mercaptobenzohydrazide] | 27.85 ± 0.054 µM | 9.912 ± 0.005 µg/mL | 9.393 ± 0.017 µg/mL | 9.293 ± 0.028 µg/mL | 8.095 ± 0.018 µg/mL | 0.59 | 16.62 ± 0.004 µM | 210 to 211 °C
3 | C=CCc1ccc(OCC(=O)NNC(=O)c2ccccc2O)c(OC)c1 [Compound 9a, N′-(2-(4-allyl-2-methoxyphenoxy)acetyl)-2-hydroxybenzohydrazide] | 47.7 ± 0.073 µM | 7.234 ± 0.001 µg/mL | 9.547 ± 0.051 µg/mL | 9.514 ± 0.017 µg/mL | 9.007 ± 0.014 µg/mL | 0.22 | 10.84 ± 0.025 µM | 230 to 231 °C
4 | C=CCc1ccc(OCC(=O)NNC(=O)c2ccccn2)c(OC)c1 [Compound 11, N′-(2-(4-allyl-2-methoxyphenoxy)acetyl)picolinohydrazide] | 26.8 ± 0.077 µM | 9.126 ± 0.013 µg/mL | 10.33 ± 0.022 µg/mL | 11.21 ± 0.044 µg/mL | 10.71 ± 0.743 µg/mL | 0.67 | 18.06 ± 0.044 µM | 204 to 205 °C
5 | C=CCc1ccc(OC(=O)c2ccc(O)cc2)c(OC)c1 [Compound 13b, 4-allyl-2-methoxyphenyl 4-hydroxybenzoate] | 9.183 ± 0.034 µM | 10.77 ± 0.026 µg/mL | 12.5 ± 0.862 µg/mL | 12.47 ± 0.014 µg/mL | 11.74 ± 0.523 µg/mL | 5.72 | 52.55 ± 0.038 µM | 178 to 179 °C
6 | C=CCc1ccc(OCC(=O)NNC(=S)NC(=O)c2cc(O)c(O)c(O)c2)c(OC)c1 [Compound 5b] | 31.19 ± 0.016 µM | 5.112 ± 0.009 µg/mL | 8.904 ± 0.034 µg/mL | 8.304 ± 0.073 µg/mL | 6.456 ± 0.023 µg/mL | 0.19 | 5.989 ± 0.007 µM | 
7 | C=CCc1ccc(OC(=O)/C=C\c2ccc(O)c(OC)c2)c(OC)c1 [Compound 16, (Z)-4-allyl-2-methoxyphenyl 3-(4-hydroxy-3-methoxyphenyl)acrylate] | 49.15 ± 0.011 µM | 16.88 ± 0.099 µg/mL | 20.6 ± 0.856 µg/mL | 27.70 ± 0.023 µg/mL | 18.63 ± 0.654 µg/mL | 0.14 | 7.348 ± 0.027 µM | 120 to 122 °C
8 | C=CCc1ccc(OC(=O)c2ccc(O)c(OC)c2)c(OC)c1 [Compound 13a, 4-allyl-2-methoxyphenyl 4-hydroxy-3-methoxybenzoate] | 7.494 ± 0.014 µM | 18.14 ± 0.001 µg/mL | 26.6 ± 0.544 µg/mL | 20.66 ± 0.032 µg/mL | 20.23 ± 0.073 µg/mL | 5.14 | 38.53 ± 0.018 µM | 199 to 200 °C
9 | 1-(2-(4-allylphenoxy)acetyl)-4-(4-hydroxybenzoyl)thiosemicarbazide [Compound 5a] | 29.37 ± 0.048 µM | 5.934 ± 0.053 µg/mL | 9.156 ± 0.002 µg/mL | 9.152 ± 0.063 µg/mL | 7.156 ± 0.002 µg/mL | 0.53 | 15.85 ± 0.039 µM | 
10 | O=C1O[C@H]([C@@H](O)CO)C(O)=C1O [L-Ascorbic acid, reference compound] |  | 8.112 ± 0.091 µg/mL | 8.121 ± 0.082 µg/mL | 8.58 ± 0.009 µg/mL | 7.523 ± 0.005 µg/mL |  |  | 
